How the values were obtained:
Type in all cases: cell-based
HS 578T = assay: NCI-60 single-dose screen; conditions: Homo sapiens, single dose 10 µM, '-' = no inhibition, read-out: % Growth Inhibition
Summary of the method: (§1)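 NCI Developmental Therapeutics Program screen across 60 human cancer cell lines from nine tumor types; compounds tested at a single dose of 10 μM.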

OVCAR-5 = assay: NCI-60 single-dose screen; conditions: Homo sapiens, single dose 10 µM, '-' = no inhibition, read-out: % Growth Inhibition
Summary of the method: as §1

SK-MEL-5 = assay: NCI-60 single-dose screen; conditions: Homo sapiens, single dose 10 µM, '-' = no inhibition, read-out: % Growth Inhibition
Summary of the method: as §1

T-47D = assay: NCI-60 single-dose screen; conditions: Homo sapiens, T47D, single dose 10 µM, '-' = no inhibition, read-out: % Growth Inhibition
Summary of the method: as §1

HCT-116 = assay: NCI-60 single-dose screen; conditions: Homo sapiens, single dose 10 µM, '-' = no inhibition, read-out: % Growth Inhibition
Summary of the method: as §1

HOP-62 = assay: NCI-60 single-dose screen; conditions: Homo sapiens, single dose 10 µM, '-' = no inhibition, read-out: % Growth Inhibition
Summary of the method: as §1

U251 = assay: NCI-60 single-dose screen; conditions: Homo sapiens, U-251, single dose 10 µM, '-' = no inhibition, read-out: % Growth Inhibition
Summary of the method: as §1

A549/ATCC = assay: NCI-60 single-dose screen; conditions: Homo sapiens, single dose 10 µM, '-' = no inhibition, read-out: % Growth Inhibition
Summary of the method: as §1

HOP-92 = assay: NCI-60 single-dose screen; conditions: Homo sapiens, single dose 10 µM, '-' = no inhibition, read-out: % Growth Inhibition
Summary of the method: as §1

COLO 205 = assay: NCI-60 single-dose screen; conditions: Homo sapiens, single dose 10 µM, '-' = no inhibition, read-out: % Growth Inhibition
Summary of the method: as §1

786-0 = assay: NCI-60 single-dose screen; conditions: Homo sapiens, single dose 10 µM, '-' = no inhibition, read-out: % Growth Inhibition
Summary of the method: as §1

OVCAR-4 = assay: NCI-60 single-dose screen; conditions: Homo sapiens, single dose 10 µM, '-' = no inhibition, read-out: % Growth Inhibition
Summary of the method: as §1

[1] = Cell viability assay (MTT) on normal cells; conditions: human, MCF-10A normal mammary gland epithelial cells, 4 days incubation
Protocol: (§2) This experiment examines the impact of the newly developed compounds 9–29 on normal cell lines to assess their safety level. The vitality of the investigated compounds was assessed using the MCF-10 A cell line, a normal human mammary gland epithelial cell line. Following 4 days of incubation on MCF-10 A cells with each examined compound at a concentration of 50 μM, the vitality of the cells was assessed using the MTT test ([Mahmoud et al., 2022]; [Mekheimer et al., 2022]).
as §2, with “The viability” for “The vitality”, “of 9–29” for “of the investigated compounds”, “2022]). Refer to Supplementary Material A1 for more details. […]” for “2022]).”
4.2. Biological evaluation
4.2.1. Cytotoxic activity using MTT Assay and evaluation of IC50
MTT assay was carried out to study the effect of compounds on mammary epithelial cells (MCF-10A). The medium in which cells were propagated contained Dulbecco's modified Eagle's medium (DMEM)/ Ham's F-12 medium (1:1) supplemented with epidermal growth factor (20 ng/mL), hydrocortisone (500 ng/mL), insulin (10 μg/mL), 2 mM glutamine and 10% foetal calf serum.
After every 2-3 days, the cells were passaged using trypsin ethylenediamine tetra acetic acid (EDTA). The cells were seeded at a density of 10^4 cells mL-1 in flat-bottomed culture plates containing 96 wells each. After 24 h, medium was removed from the plates and the compounds in (in 0.1% DMSO) were added (in 200 μL medium to yield a final concentration of 0.1% v/v) to the wells of plates. A single compound was designated with four wells followed by incubation of plates for 96h at 37°C. After incubation, medium was removed completely from the plates followed by addition of MTT (0.4 mg/mL in medium) to each well and subsequent incubation of plates for 3h. MTT (along with the medium) was removed and DMSO (150μL) was added to each well of the culture plates, followed by vertexing and subsequent measurement of absorbance (at 540 nm) using microplate reader. The data are shown as percentage inhibition of proliferation in comparison with controls containing 0.1% DMSO. […]

Panc-1 = assay: Antiproliferative assay (MTT); conditions: Homo sapiens, Panc-1 (pancreatic), read-out: Antiproliferative activity IC50 ± SEM, Panc-1
Excerpt: (§3) The MTT test was employed for this investigation ([Hisham et al., 2022]; [El-Sherief et al., 2019]; [Ramadan et al., 2020]). Table 2 presents the four cancer cell lines’ median inhibitory concentration (IC50) and GI50 (average IC50) values.
(§4) The MTT test was employed for this investigation ([Hisham et al., 2022]; [El-Sherief et al., 2019]; [Ramadan et al., 2020]). The IC50 values were derived from dose-response tests. The reported data are derived from at least two independent studies, each comprising three replicates per concentration. See Supplementary Material A1 for more details.
(§5) (in 0.1% DMSO) were added (in 200 μL medium to yield a final concentration of 0.1% v/v) to the wells of plates. A single compound was designated with four wells followed by incubation of plates for 96h at 37°C. After incubation, medium was removed completely from the plates followed by addition of MTT (0.4 mg/mL in medium) to each well and subsequent incubation of plates for 3h. MTT (along with the medium) was removed and DMSO (150μL) was added to each well of the culture plates, followed by vertexing and subsequent measurement of absorbance (at 540 nm) using microplate reader. The data are shown as percentage inhibition of proliferation in comparison with controls containing 0.1% DMSO.
(§6) 4.2.1.2. Assay for antiproliferative effect […]
(§7) (10%) and 1 µg/mL each of aprotinin, leupeptin and pepstatin for 120 min. The purification was performed either at 4 °C or on ice. To record autophosphorylation level, EGFR kinase assay was carried out on the basis of DELFIA/Time-Resolved Fluorometry. The compounds were first
(§8) (1 picture or pasted object on this page, not shown here)

MCF-7 = assay: Antiproliferative assay (MTT); conditions: Homo sapiens, MCF7, MCF-7 (breast), read-out: Antiproliferative activity IC50 ± SEM, MCF-7
Excerpt: as §3, §4, §5, §6, §7, §8

| Compound | inhibition at 10 µM (HS 578T) | inhibition at 10 µM (OVCAR-5) | inhibition at 10 µM (SK-MEL-5) | inhibition at 10 µM (T-47D) | inhibition at 10 µM (HCT-116) | inhibition at 10 µM (HOP-62) | inhibition at 10 µM (U251) | inhibition at 10 µM (A549/ATCC) | inhibition at 10 µM (HOP-92) | inhibition at 10 µM (COLO 205) | inhibition at 10 µM (786-0) | inhibition at 10 µM (OVCAR-4) | viability at 4 days, 50 µM [1] | IC50 (Panc-1) | IC50 (MCF-7) |
| --- | --- | --- | --- | --- | --- | --- | --- | --- | --- | --- | --- | --- | --- | --- | --- |
| COc1ccc(CSc2nc(-c3ccc(Cl)cc3)cc(-c3ccc(OC)cc3)n2)cc1 [Compound 15, 2-(4-Methoxybenzylthio)-4-(4-chlorophenyl)-6-(4-methoxyphenyl)pyrimidine] | 9.27% | < 0% | < 0% | < 0% | < 0% | < 0% | < 0% | < 0% | < 0% | 2.89% | < 0% | < 0% | 91% | 80 ± 7 nM | 82 ± 7 nM |
| COc1ccc(-c2cc(-c3cccc(OC)c3)nc(SC)n2)cc1 [Compound 16, 6-(3-Methoxyphenyl)-4-(4-methoxyphenyl)-2-(methylthio)pyrimidine] | 5.45% | < 0% | 6.46% | 22.2% | 17.3% | 1.53% | 10.7% | 13% | 1.87% | < 0% | < 0% | 8.29% | 92% | 85 ± 8 nM | 89 ± 8 nM |
| C=CCSc1nc(-c2ccc(Cl)cc2)cc(-c2ccc(OC)c(OC)c2)n1 [Compound 27, 2-(Allylthio)-4-(4-chlorophenyl)-6-(3,4-dimethoxyphenyl)pyrimidine] | < 0% | < 0% | 12.2% | 23.1% | 21.8% | < 0% | < 0% | 12.3% | 10.6% | < 0% | 2.53% | 10.3% | 89% | 58 ± 5 nM | 60 ± 6 nM |
| CCSc1nc(-c2ccc(Cl)cc2)cc(-c2ccc(OC)cc2)n1 [Compound 10, 4-(4-Chlorophenyl)-2-(ethylthio)-6-(4-methoxyphenyl)pyrimidine] | 2.58% | < 0% | 3.36% | 18.6% | 4.3% | < 0% | 4.88% | 11.2% | < 0% | < 0% | 3.07% | 12.9% | 90% | 76 ± 7 nM | 79 ± 7 nM |
| CCSc1nc(-c2ccc(OC)cc2)cc(-c2cccc(OC)c2)n1 [Compound 17, 2-(Ethylthio)-6-(3-methoxyphenyl)-4-(4-methoxyphenyl)pyrimidine] | < 0% | < 0% | 6.31% | 10.2% | 5.86% | < 0% | < 0% | 0.61% | < 0% | < 0% | < 0% | 3.36% | 90% | 28 ± 2 nM | 30 ± 3 nM |
